We go through one compound from publication PMC4433817 (Journal of molecular biology, 2015).

This assay has as its target IspG (GcpE) (Thermus thermophilus, UniProt Q5SLI8). The assay can be described thus: co-crystal X-ray structure. In kind it is biochemical.

SMILES strings stand for the structures.

Sequence of IspG (GcpE) (Q5SLI8 whole entry): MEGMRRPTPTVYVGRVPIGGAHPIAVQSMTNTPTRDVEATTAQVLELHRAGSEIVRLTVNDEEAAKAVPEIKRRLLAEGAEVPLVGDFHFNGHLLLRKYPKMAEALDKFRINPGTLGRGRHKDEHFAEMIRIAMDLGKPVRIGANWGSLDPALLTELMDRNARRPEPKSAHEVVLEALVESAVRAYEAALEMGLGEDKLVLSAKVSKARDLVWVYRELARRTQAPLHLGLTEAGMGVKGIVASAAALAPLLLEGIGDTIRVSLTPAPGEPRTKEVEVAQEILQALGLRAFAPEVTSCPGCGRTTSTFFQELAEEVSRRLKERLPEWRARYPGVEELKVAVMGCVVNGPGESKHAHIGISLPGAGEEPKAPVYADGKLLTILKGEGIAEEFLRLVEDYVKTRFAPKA

Usually IC50 stands for the concentration at which inhibition is half-maximal. Low readings indicate inhibition by little substance, high ones a need for much substance. Regarding `O=P(O)(O)OP(=O)(O)O` [compound 6, diphosphate], half-maximal inhibition (IC50) required 20 µM.
